One data set in a line: Bio-assay (mcg./mg.). Here is the method: 7-[D-α-amino-α-(p-hydroxyphenyl)acetamido]-3-(1,2,3-triazol-5-ylthiomethyl)-3-cephem-4-carboxylic acid methanol solvate (15 g.) was slurried in 60 ml. of water. The pH was raised to 6.5 by addition of 4N NaOH and the mixture was passed through a 200 mesh screen. The reaction mixture was slurried at room temperature for 2 hours, the pH being maintained at 6.5 during this period. The crystals were removed by filtration, washed with 20 ml. of water and air dried at 37° C. for 24 hours to give 11.5 g. of title crystalline product. Bio assay = 924 mcg./mg. (average % H2 O, K.F. = 5.26).
7-[D-α-amino-α-(p-hydroxyphenyl)acetamido]-3-(1,2,3-triazol-5-ylthiomethyl)-3-cephem-4-carboxylic acid methanol solvate (200 mesh; 10.0 g.) substantially free of propylene glycol is slurried in 30-40 ml. of deionized water at ambient room temperature (20°-25° C.) to give a pH 3-4 aqueous suspension. NaOH (40%) is slowly added with rapid stirring to bring the pH to 6.3-6.7. The mixture is slurried at pH 6.3-6.7 for 2 hours. The crystals are removed by filtration, washed with water and air dried at room temperature for 24 hours to give a 75-80% weight yield of 950-1000 mcg./mg. crystals of 7-[D-α-amino-α-(p-hydroxyphenyl)acetamido]-3-(1,2,3-triazol-5-ylthiomethyl)-3-cephem-4-carboxylic acid dihydrate. […] H2 O, K.F. = 6.56.

Data set [1] in a line: Loss of bioactivity on storage at elevated temperatures. The class given is physicochemical. Here is the method:
h. Loss of bioactivity on storage at elevated temperatures: 100° C., 24 hours = <6%; 48 hours = <12%; 56° C., 1 month = <10%.

Data set [2] can be described thus: Mouse blood levels after IM administration. The format is in vivo. To be noted: IM 10 mg./kg. The procedure:
Mouse Blood Levels after IM
Administration of 10 mg./kg. Body Weight
Blood Levels (mcg./ml.)
(§1) The compounds were prepared in 0.01% phosphate buffer. BL-S640 was used a
(§2) standard for all compounds.

The nature of data set [3]: Urinary recovery after IM administration to rats. The format is in vivo. To be noted: rat, urine, read-out: Urinary recovery, percentage of administered dose recovered; for dose excreted at 6 h: 0-6 hr. The procedure: Urinary Recovery after IM
Administration of 50 and 10 mg./kg. to Rats
as §1, §2

Data set [4] has as its system S. aureus Meth-Res A15097. Briefly: Antibiotic spectrum in nutrient broth, MIC. The format is cell-based. Particulars: Staphylococcus aureus; 10^-3 dilution; BL-S1052 adjusted for 97.5% content of BL-S640. The text has this:
(§3) Antibiotic Spectrum in Nutrient Broth
(§4) **Dilution of overnight broth culture.
(§5) ^(1) Adjusted for 97.5% content of BL-S640. In other words, the
(§6) numerical values are lowered, i.e. improved. This adjustment was also mad
(§7) in the tests reported below or in the alternative, a larger weight was
(§8) used to provide equivalent dosage.

Another data set deals with S. aureus Smith A9537. Briefly: Antibiotic spectrum in nutrient broth, MIC. The class given is cell-based. Particulars: Staphylococcus aureus, BL-S1052 adjusted for 97.5% content of BL-S640.
Excerpt: as §3, §4, §5, §6, §7, §8

Another data set has as its system K. pneumoniae A9977. Briefly: Antibiotic spectrum in nutrient broth, MIC. The format is cell-based. To be noted: Klebsiella pneumoniae, 10^-4 dilution, BL-S1052 adjusted for 97.5% content of BL-S640.
Excerpt: as §3, §4, §5, §6, §7, §8

The test system of the next data set is Pr. mirabilis A9900. Put plainly: Antibiotic spectrum in nutrient broth, MIC. The format is cell-based. To be noted: Proteus mirabilis, 10^-4 dilution, BL-S1052 adjusted for 97.5% content of BL-S640.
Excerpt: as §3, §4, §5, §6, §7, §8

Another data set relates to E. coli Juhl A15119. Put plainly: Antibiotic spectrum in nutrient broth, MIC. The format is cell-based. Particulars: Escherichia coli, JUHLA15119; 10^-4 dilution; BL-S1052 adjusted for 97.5% content of BL-S640.
Excerpt: as §3, §4, §5, §6, §7, §8

The next data set has as its system E. coli A9675. Put plainly: Antibiotic spectrum in nutrient broth, MIC. The format is cell-based. Particulars: Escherichia coli, 10^-4 dilution, BL-S1052 adjusted for 97.5% content of BL-S640.
Excerpt: as §3, §4, §5, §6, §7, §8

For another data set, the system named is Sal. enteritidis A9531. Briefly: Antibiotic spectrum in nutrient broth, MIC. Particulars: Salmonella enterica, 10^-4 dilution, BL-S1052 adjusted for 97.5% content of BL-S640. The class given is cell-based.
Excerpt: as §3, §4, §5, §6, §7, §8

The subject of another data set is Ent. cloacae A9657. Put plainly: Antibiotic spectrum in nutrient broth, MIC. The format is cell-based. Particulars: Enterobacter cloacae, 10^-4 dilution, BL-S1052 adjusted for 97.5% content of BL-S640.
Excerpt: as §3, §4, §5, §6, §7, §8

In a further data set the test system is K. pneumoniae A15130. Briefly: Antibiotic spectrum in nutrient broth, MIC. The format is cell-based. Particulars: Klebsiella pneumoniae, 10^-4 dilution, BL-S1052 adjusted for 97.5% content of BL-S640.
Excerpt: as §3, §4, §5, §6, §7, §8

Another data set has as its system Ps. Aeruginosa A9843A. Briefly: Antibiotic spectrum in nutrient broth, MIC. Particulars: Pseudomonas aeruginosa. The format is cell-based.
Excerpt: as §3, §4, §5, §6, §7, §8

The next data set has as its system Ser. marcescens A20019. Put plainly: Antibiotic spectrum in nutrient broth, MIC. The class given is cell-based. To be noted: Serratia marcescens, 10^-4 dilution, BL-S1052 adjusted for 97.5% content of BL-S640.
Excerpt: as §3, §4, §5, §6, §7, §8

The next data set concerns Ent. cloacae A9656. Put plainly: Antibiotic spectrum in nutrient broth, MIC. Particulars: Enterobacter cloacae, 10^-4 dilution, BL-S1052 adjusted for 97.5% content of BL-S640. The format is cell-based.
Excerpt: as §3, §4, §5, §6, §7, §8

Data set [5] can be described thus: Mouse blood levels after PO administration. The format is in vivo. Particulars: PO 100 mg./kg. The procedure:
______________________________________
Mouse Blood Levels after PO
Administration of 100 mg./kg. Body Weight
The compounds were prepared in Tween-CMC. BL-S640 was used as standard fo

A short description of data set [6]: Paper chromatograms of rat urine for antibiotically active metabolites after IM administration. The class given is in vivo. Particulars: rat urine 0-2 and 2-4 hours, paper chromatography system No. 9. The procedure:
Paper chromatograms were run on rat urine collected between 0 and 2 and between 2 and 4 hours, following IM administration of BL-S1052 and BL-S640, for the detection of antibiotically active metabolites using descending chromatography with system No. 9 (butyl acetate:n-butanol:glacial acetic acid:H2 O = 80:15:40:24).

A further data set deals with S. aureus BX1633. Put plainly: Antibiotic spectrum in nutrient broth, MIC. The format is cell-based. Particulars: Staphylococcus aureus, BL-S1052 adjusted for 97.5% content of BL-S640, read-out: MIC.
Excerpt: as §3, §4
(§9) This adjustment was also mad
as §7, §8

The next data set concerns Ent. cloacae A9659. Put plainly: Antibiotic spectrum in nutrient broth, MIC. To be noted: Enterobacter cloacae, 10^-4 dilution, BL-S1052 adjusted for 97.5% content of BL-S640. The format is cell-based.
Excerpt: as §3, §4, §9, §7, §8

A further data set deals with Pr. morganii A15153. Briefly: Antibiotic spectrum in nutrient broth, MIC. The format is cell-based. To be noted: Morganella morganii, 10^-4 dilution, BL-S1052 adjusted for 97.5% content of BL-S640.
Excerpt: as §3, §4, §9, §7, §8

For a further data set, the system named is S. pneumoniae A9585. Put plainly: Antibiotic spectrum in nutrient broth, MIC. The format is cell-based. To be noted: Streptococcus pneumoniae, 10^-3 dilution of overnight culture, 45% AAB + 5% serum + 50% broth, BL-S1052 adjusted for 97.5% content of BL-S640.
Excerpt: as §3
(§10) *45% AAB + 5% serum + 50% broth listed above.
as §4, §5, §6, §7, §8

The subject of a further data set is Str. pyogenes A9604. Put plainly: Antibiotic spectrum in nutrient broth, MIC. The format is cell-based. Particulars: Streptococcus pyogenes, 10^-3 dilution of overnight culture, 45% AAB + 5% serum + 50% broth, BL-S1052 adjusted for 97.5% content of BL-S640.
Excerpt: as §3, §10, §4, §5, §6, §7, §8

Molecules are shown by their SMILES. ≈ marks a conversion by molar mass, not a printed value. Read-outs that look alike come from different tables or passages of the source.

The record followed here is patent US4061862A, “Derivatives of 7-(cyclized)phenylglycyl-3-triazolo-thio methyl cephalosporin” (priority 1976, dated 1977).

With `N[C@@H](C(=O)NC1C(=O)N2C(C(=O)O)=C(CSc3c[nH]nn3)CS[C@H]12)c1ccc(O)cc1` (stereo partly drawn) [7-[D-α-amino-α-(p-hydroxyphenyl)acetamido]-3-(1,2,3-triazol-5-ylthiomethyl)-3-cephem-4-carboxylic acid sesquihydrate], the Bio-assay in the data set “Bio-assay (mcg./mg.)” (sesquihydrate) came out at 924 µg/mg.
Molecule `NC(C(=O)NC1C(=O)N2C(C(=O)O)=C(CSc3c[nH]nn3)CSC12)c1ccc(O)cc1` [7-[D-α-amino-α-(p-hydroxyphenyl)acetamido]-3-(1,2,3-triazol-5-ylthiomethyl)-3-cephem-4-carboxylic acid methanol solvate] displayed a Bio-assay in “Bio-assay (mcg./mg.)” of 850 to 900 µg/mg.
Same read-out and setting: the result for `N[C@@H](C(=O)NC1C(=O)N2C(C(=O)O)=C(CSc3cnn[nH]3)CS[C@H]12)c1ccc(O)cc1.O.O` (stereo partly drawn) [7-[D-α-amino-α-(p-hydroxyphenyl)acetamido]-3-(1,2,3-triazol-5-ylthiomethyl)-3-cephem-4-carboxylic acid dihydrate] reads 950 to 1000 µg/mg.
For `NC(C(=O)NC1C(=O)N2C(C(=O)O)=C(CSc3c[nH]nn3)CSC12)c1ccc(O)cc1` [7-[D-α-amino-α-(p-hydroxyphenyl)acetamido]-3-(1,2,3-triazol-5-ylthiomethyl)-3-cephem-4-carboxylic acid propylene glycol solvate], the degraded at 720 h in data set [1] (56° C., 1 month) is less than 10%. The degraded at 24 h in data set [1] (100° C., 24 hours) was less than 6%. The degraded at 48 h in data set [1] (100° C., 48 hours) was less than 12%.
In turn, `N[C@@H](C(=O)N[C@@H]1C(=O)N2C(C(=O)O)=C(CSc3c[nH]nn3)CS[C@H]12)c1ccc(O)cc1` [BL-S640, 7-[D-α-amino-α-(p-hydroxyphenyl)acetamido]-3-(1,2,3-triazol-5-ylthiomethyl)-3-cephem-4-carboxylic acid] yielded a concentration at 0.25 h in data set [2] (0.25 hr) of 15.7 µg/mL. Moreover, the concentration at 0.5 h in data set [2] (0.5 hr) is 13.2 µg/mL; in [5] (0.5 hr) it was 53.4 µg/mL. For the same molecule, the concentration at 1 h in data set [2] (1 hr) came to 9.5 µg/mL; in data set [5] (1 hr) it was 45.4 µg/mL. In addition, the concentration at 1.5 h in data set [2] (1.5 hr) was found to be 6.8 µg/mL. Moreover, the dose excreted at 6 h was determined as 24.3% in data set [3] (10 mg/kg, IM 10 mg./kg.) and 44.5% in data set [3] (50 mg/kg, IM 50 mg./kg.). Further, the dose excreted at 24 h in data set [3] (10 mg/kg, IM 10 mg./kg., 0-24 hr) was found to be 25.7%; in data set [3] (10 mg/kg, IM 10 mg./kg., 6-24 hr), 1.4%; in [3] (50 mg/kg, IM 50 mg./kg., 0-24 hr) it was 47.2%; in [3] (50 mg/kg, IM 50 mg./kg., 6-24 hr), 2.7%. The MIC in [4] amounted to 8 mg/L (≈ 17.3 µM); with S. aureus Smith A9537 (SMITHA9537, 10^-4 dilution, nutrient broth) it was 0.13 mg/L (≈ 0.281 µM); against S. aureus Smith A9537 (SMITHA9537, +50% serum, 10^-4 dilution), 2 mg/L (≈ 4.32 µM); with K. pneumoniae A9977 it was 0.5 mg/L (≈ 1.08 µM); in the data set on Pr. mirabilis A9900, 0.5 mg/L (≈ 1.08 µM); against E. coli Juhl A15119, 0.5 mg/L (≈ 1.08 µM). Besides, the MIC in the data set with E. coli A9675 was 2 mg/L (≈ 4.32 µM); against Sal. enteritidis A9531, 0.25 mg/L (≈ 0.541 µM); in the data set on Ent. cloacae A9657 it was 0.5 mg/L (≈ 1.08 µM); against K. pneumoniae A15130, 1 mg/L (≈ 2.16 µM); in the data set on Ps. Aeruginosa A9843A it was more than 125 mg/L; in the data set on Ser. marcescens A20019, more than 125 mg/L. Moreover, the MIC in the data set on Ent. cloacae A9656 is more than 125 mg/L; in the data set on S. aureus BX1633 (BX1633, 10^-2 dilution, A9606), 4 mg/L (≈ 8.65 µM); with S. aureus BX1633 (BX1633, 10^-3 dilution, A9696), 0.25 mg/L (≈ 0.541 µM); in the data set with Ent. cloacae A9659, 32 mg/L (≈ 69.2 µM); in the data set with Pr. morganii A15153, 32 mg/L (≈ 69.2 µM); with S. pneumoniae A9585, 0.06 mg/L. The MIC in the data set with Str. pyogenes A9604 is 0.03 mg/L. In [5] (2 hr), this molecule displayed a concentration at 2 h of 27.2 µg/mL. Further, the concentration at 3.5 h in data set [5] (3.5 hr) is 10.7 µg/mL. The “Antibiotically active spots in urine” value in data set [6] is listed as “Two spots identically located”.

For orientation: MIC means the lowest concentration that inhibits growth of the organism.
